Measured values as given in patent US20120128630A1, “1-(6 MEMBERS AZO-HETEROCYCLIC)-PYRROLIN-2-ONE COMPOUNDS AS INHIBITORS OF HEPATITIS C NS5B POLYMERASE, THE PHARAMACEUTICAL COMPOSITION THEREOF AND THEIR THERAPEUTIC USE” (priority 2009, published 2012).

How the values were obtained:
HCV replicon Luc Neo ET = assay: Luc Neo ET Replicon assay; assay type: cell-based, Hepatitis C virus; conditions: Hepatitis C virus, 72 h, Table 3, titled RdRp enzyme assay results, EC50_Replicon LucneoET; 72 hours with compound, luciferase
Procedure: Human Hepatoma Huh-7 cell line was maintained in DMEM/HAMF-12 supplemented with 10% SVF, 4 mM glutamine, […] Na pyruvate, 1% penistreptomycine. HCV replicon containing Huh-7 cell lines Huh-9.13 and Luc Neo ET (Reblikon) were maintained in DMEM supplemented with 10% SVF, 2 mM glutamine, and 1×NEAA, 100 U/ml penicillin, and 100 μg/ml streptomycine. Replicon cells were maintained in medium supplemented with 1 mg/ml G418 for replicon Huh-9.13 and 0.5 mg/ml for Luc Neo et replicon unless indicated otherwise. Huh-7 and HCV replicon cell lines were maintained at 37° C. and 5% CO2 in a humidified atmosphere. Cells were dissociated at sub confluence with trypsin EDTA 1×.
Replicon Luc Neo ET is a bicistronic expression constructs (Lohmann et al, 1999, Science 285, 110-113). In brief, the structural genes of the HCV genome were replaced by heterologous sequences; the gene encoding the neomycin phosphotransferase (NPT) and the internal ribosome entry site (IRES) of the encephalomyocarditis virus (EMCV). The bicistronic construct is therefore composed of the following elements: HCV-IRES nucleotides 1-389, the NPT gene, the EMCV-IRES directing translation of downstream HCV sequences from NS2 or NS3 up to the authentic 3′ end of the genome. HCV Polyprotein harbours the cell culture adaptive mutations E1202G, T1280I, K1846T. G418-resistance is only possible with cells containing high amounts of replicon.
Cells were dissociated the day before addition of compounds and seeded in 96 well-plates at a final concentration of 77 777.77 cells.ml^−1.well^−2 in 90 μl final volume of culture medium per well and were maintained at 37° C. and 5% CO2 in a humidified atmosphere for 24 hours. 10 μl of compounds to be tested were added 24 hours after seeding. Final concentration of DMSO was 1%. Cells were incubated in the presence of compounds for 72 hours after which expression of firefly luciferase reporter gene was quantified. Briefly, culture medium was removed and cells were lysed by addition of 100 μl of lysis buffer containing 125 mM Tris Phosphate ph 7.8, 10 mM EDTA, 5 mM DTT, 50% glycerol and 5% Triton. Plates were vortexed 10 min at 1300 rpm. Cell lysat was transferred in OpaqueWhite Assay 96 well Flat Bottom plates. 100 μl of luciferin solution 1× were added to each well. Luciferin solution contained 40 mM Tris Phosphate ph 7.8, 0.2 mM EDTA, 67 mM DTT, 2.14 mM MgCl2, 5.4 mM MgSO4, 4.7×10^−4 M luciferin, 5.3×10^−4 M ATP and 2.7×10^−4 M Acetyl co enzyme A. Luminescence was immediately measured with Berthold Microlumat Plus LB 96V luminometer with an integration of 0.5 sec Inhibition was calculated using the formula:
% inhibition=1−[(RLUsample−RLUbackground)/(RLUsignal−RLUbackground)]

HCV NS5B genotype 1b = biological target: T1, HCV NS5B genotype 1b (Hepatitis C virus genotype 1b, UniProt Q9WMX2); assay: 3D-SCREEN assay (NS5B 3D-Screen platform, luciferase reporter gene); assay type: cell-based; conditions: EC50_3DS_NS5B
T1 construct: The protein was expressed with a 21 amino acid C-terminal deletion to remove transmembrane domain; expressed in transfected cells; host or cells: Huh-7
Description: cDNA encoding HCV NS5B genotype 1b, was cloned in frame with Gal4-DNA Binding Domain. The protein was expressed with a 21 amino acid C-terminal deletion to remove transmembrane domain. Expression of NS5BΔ21/Gal4 DBD fusion protein was under control of SV40 early promoter. 3D-Sensor peptide was cloned in frame with VP16 activation domain. Expression of 3D-Sensor/VP16 AD fusion protein was under control of CMV promoter. Expression of the firefly luciferase reporter gene was inducible by the [Target protein/conformation sensitive peptide/VP16AD] complex.
It is a single-target, cell based assay. Briefly, expression of a reporter gene depends on the interaction of a short peptide, thereafter named 3D-Sensor, and native conformation of the target protein. Whenever the conformation of the target protein is modified, interaction between 3D-sensor and target protein is disrupted and reporter gene is not expressed anymore. Conformation modifiers are identified by loss of expression of reporter gene. NS5B 3D-Screen platform was generated in Huh-7 cell lines by transient transfection of three expression vectors encoding respectively
(i) HCV NS5BΔ21/Gal4-DBD fusion protein
(ii) the 3D-sensor peptide I4/VP16 fusion protein
(iii) the firefly luciferase reporter gene
Huh-7 cells were dissociated the day before transfection and seeded in T175 flasks at a density of 10^7 cells in 30 ml culture medium. Equimolar ratios of vectors were transfected in cell according to optimized jetPEI transfection protocol (PolyPlus Transfection, Illkirch, France) and 10 μg total DNA/10^6 cells. Transfection was performed for 2 hours at 37° C. and 5% CO2 in a humidified atmosphere. After two hours cells were dissociated and seeded in 96 wells plates at a density of 25,000 cells per well and 90 μl culture medium. 10 μl of compounds to be tested were added 2 hours after seeding. Final concentration of DMSO was 1%. Cells were incubated in the presence of compounds for 24 hours after which expression of firefly luciferase reporter gene was quantified. Briefly, culture medium was removed and cells were lysed by addition of 100 μl of lysis buffer containing 125 mM Tris Phosphate ph 7.8, 10 mM EDTA, 5 mM DTT, 50% glycerol and 5% Triton. Plates were vortexed 10 min at 1300 rpm. Cell lysat was transferred in OpaqueWhite Assay 96 well Flat Bottom plates. 100 μl of luciferin solution 1× were added to each well. Luciferin solution contained 40 mM Tris Phosphate ph 7.8, 0.2 mM EDTA, 67 mM DTT, 2.14 mM MgCl2, 5.4 mM MgSO4, 4.7×10^−4 M luciferin, 5.3×10^−4 M ATP and 2.7×10^−4 M Acetyl co enzyme A. Luminescence was immediately measured with Berthold Microlumat Plus LB 96V luminometer with an integration of 0.5 sec. Inhibition was calculated using the formula: % inhibition=(1−(read/average max))*100. Average max=signal in absence of compound

[1] = Table 1, 3D-SCREEN assay results, Huh-7 cells, 24 hours with compound, firefly luciferase reporter
[2] = Table 2, titled Replicon assay results

Cc1ccc(C(=O)C2=C(O)C(=O)N(c3ccccn3)C2c2ccc(C(C)(C)C)cc2)cc1 (stereo not shown) [Example 2, 5-(4-tert-butyl-phenyl)-3-hydroxy-4-(4-methyl-benzoyl)-1-pyridin-2-yl-1,5-dihydro-pyrrol-2-one]
EC50 (HCV replicon Luc Neo ET): < 10 µM
EC50 (HCV NS5B genotype 1b; [1]): 9 µM

Cc1ccc(C(=O)C2=C(O)C(=O)N(c3ccc(C)nn3)C2c2ccc(OC(C)C)cc2)cc1 (stereo not shown) [Example 33, 3-hydroxy-5-(4-isopropoxy-phenyl)-4-(4-methyl-benzoyl)-1-(6-methyl-pyridazin-3-yl)-1,5-dihydro-pyrrol-2-one]
melting point: 268 to 272 °C
EC50 (HCV NS5B genotype 1b; [1]): 2 µM

Cc1ccc(C(=O)C2=C(O)C(=O)N(c3ccc(N(C)C)nn3)C2c2ccc(C(C)C)cc2)cc1 (stereo not shown) [Example 37, 1-(6-dimethylamino-pyridazin-3-yl)-3-hydroxy-5-(4-isopropyl-phenyl)-4-(4-methyl-benzoyl)-1,5-dihydro-pyrrol-2-one]
melting point: 281 °C
EC50 (HCV NS5B genotype 1b; [1]): 9 µM

Cc1ccc(C(=O)C2=C(O)C(=O)N(c3ccc(C)nn3)C2c2cccc(OC(C)C)c2)cc1 (stereo not shown) [Example 38, 3-hydroxy-5-(3-isopropoxy-phenyl)-4-(4-methyl-benzoyl)-1-(6-methyl-pyridazin-3-yl)-1,5-dihydro-pyrrol-2-one]
melting point: 243 to 245 °C
EC50 (HCV NS5B genotype 1b; [1]): 10 µM

Cc1ccc(C(=O)C2=C(O)C(=O)N(c3ccc(C)cn3)C2c2ccc(C(C)C)cc2)cc1 (stereo not shown) [Example 41, 3-hydroxy-5-(4-isopropyl-phenyl)-4-(4-methyl-benzoyl)-1-(5-methyl-pyridin-2-yl)-1,5-dihydro-pyrrol-2-one]
melting point: 259 to 261 °C
EC50 (HCV NS5B genotype 1b; [1]): 7 µM

Cc1ccc(N2C(=O)C(O)=C(C(=O)c3ccc(C(C)C)cc3)C2c2ccc(N3CCOCC3)cc2)nn1 (stereo not shown) [Example 58, 3-hydroxy-4-(4-isopropyl-benzoyl)-1-(6-methyl-pyridazin-3-yl)-5-(4-morpholin-4-yl-phenyl)-1,5-dihydro-pyrrol-2-one]
melting point: 293 to 294 °C
EC50 (HCV NS5B genotype 1b; [1]): 5 µM

Cc1ccc(N2C(=O)C(O)=C(C(=O)c3ccc(C(C)C)cc3)C2c2ccc(C(C)C)cc2)cn1.Cl (stereo not shown) [Example 66, 5-[3-hydroxy-4-(4-isopropyl-benzoyl)-5-(4-isopropyl-phenyl)-2-oxo-2,5-dihydro-pyrrol-1-yl]-2-methyl-pyridinium; chloride]
melting point: 165 °C
EC50 (HCV NS5B genotype 1b; [1]): 2 µM

COCCOc1ccc(C(=O)C2=C(O)C(=O)N(c3ccc(C)nn3)C2c2ccc(OC(F)(F)F)cc2)cc1 (stereo not shown) [Example 85, 3-Hydroxy-4-[4-(2-methoxy-ethoxy)-benzoyl]-1-(6-methyl-pyridazin-3-yl)-5-(4-trifluoromethoxy-phenyl)-1,5-dihydro-pyrrol-2-one]
melting point: 216 to 219 °C
EC50 (HCV NS5B genotype 1b; [2]): < 10 µM

CC(=O)OC1=C(C(=O)c2ccc(C(C)C)cc2)C(c2ccc(OC(F)(F)F)cc2)N(c2ccc(C)nn2)C1=O (stereo not shown) [Example 86, Acetic acid 4-(4-isopropyl-benzoyl)-1-(6-methyl-pyridazin-3-yl)-2-oxo-5-(4-trifluoromethoxy-phenyl)-2,5-dihydro-1H-pyrrol-3-yl ester]
EC50 (HCV replicon Luc Neo ET): < 1 µM
EC50 (HCV NS5B genotype 1b; [2]): < 0.1 µM

Cc1ccc(N2C(=O)C(O)=C(C(=O)c3ccc(C(C)C)cc3)C2c2ccc(Cl)cc2)nn1 (stereo not shown) [Example 87, 5-(4-chloro-phenyl)-3-hydroxy-4-(4-isopropyl-benzoyl)-1-(6-methyl-pyridazin-3-yl)-1,5-dihydro-pyrrol-2-one]
melting point: 258 to 260 °C
EC50 (HCV NS5B genotype 1b; [2]): < 10 µM

Cc1ccc(N2C(=O)C(O)=C(C(=O)c3ccc(OC(F)(F)F)cc3)C2c2ccc(C(C)C)cc2)cn1 (stereo not shown) [Example 94, 3-hydroxy-5-(4-isopropyl-phenyl)-1-(6-methyl-pyridin-3-yl)-4-(4-trifluoromethoxy-benzoyl)-1,5-dihydro-pyrrol-2-one]
EC50 (HCV replicon Luc Neo ET): < 10 µM
EC50 (HCV NS5B genotype 1b; [2]): < 10 µM

CCOc1ccc(C(=O)C2=C(O)C(=O)N(c3ccc(C)nn3)C2c2ccc(OC(F)(F)F)cc2)cc1 (stereo not shown) [Example 101, 4-(4-ethoxy-benzoyl)-3-hydroxy-1-(6-methyl-pyridazin-3-yl)-5-(4-trifluoromethoxy-phenyl)-1,5-dihydro-pyrrol-2-one]
melting point: 255 to 257 °C
EC50 (HCV NS5B genotype 1b; [2]): < 10 µM

Cc1ccc(N2C(=O)C(O)=C(C(=O)c3ccc(C(C)C)cc3)C2c2ccc(OC(C)C)cn2)nn1 (stereo not shown) [Example 121, 3-hydroxy-5-(5-isopropoxy-pyridin-2-yl)-4-(4-isopropyl-benzoyl)-1-(6-methyl-pyridazin-3-yl)-1,5-dihydro-pyrrol-2-one]
melting point: 243 to 245 °C
EC50 (HCV NS5B genotype 1b; [2]): < 10 µM

Cc1ccc(N2C(=O)C(O)=C(C(=O)c3ccc(C(F)(F)F)nc3)C2c2ccc(OC(F)(F)F)cc2)nn1 (stereo not shown) [Example 126, 3-hydroxy-1-(6-methyl-pyridazin-3-yl)-5-(4-trifluoromethoxy-phenyl)-4-(6-trifluoromethyl-pyridine-3-carbonyl)-1,5-dihydro-pyrrol-2-one]
melting point: 172 °C
EC50 (HCV NS5B genotype 1b; [2]): < 10 µM

Cc1ccc(N2C(=O)C(O)=C(C(=O)c3ccc(C(C)C)cc3)C2c2ccc(N(C)C)cc2)nn1 (stereo not shown) [Example 135, 5-(4-dimethylamino-phenyl)-3-hydroxy-4-(4-isopropyl-benzoyl)-1-(6-methyl-pyridazin-3-yl)-1,5-dihydro-pyrrol-2-one]
melting point: 283 to 286 °C
EC50 (HCV NS5B genotype 1b; [2]): < 10 µM

Cc1ccc(N2C(=O)C(O)=C(C(=O)c3ccc(C(C)C)cc3)C2c2ccc(Cn3nccn3)cc2)nn1 (stereo not shown) [Example 147, 3-hydroxy-4-(4-isopropyl-benzoyl)-1-(6-methyl-pyridazin-3-yl)-5-(4-[1,2,3]triazol-2-ylmethyl-phenyl)-1,5-dihydro-pyrrol-2-one]
melting point: 285 °C
EC50 (HCV NS5B genotype 1b; [2]): < 10 µM

Cc1ccc(N2C(=O)C(O)=C(C(=O)c3ccc(C(C)C)cc3)[C@@H]2c2ccc(C(F)(F)F)cc2)nn1 [Example 190, 3-hydroxy-4-(4-isopropyl-benzoyl)-1-(6-methyl-pyridazin-3-yl)-5(S)-(4-trifluoromethyl-phenyl)-1,5-dihydro-pyrrol-2-one]
melting point: 252 °C
EC50 (HCV NS5B genotype 1b; [2]): < 10 µM
